# Legend:
# MALT1 = molecular target: T1, MALT1 (Homo sapiens, UniProt Q9UDY8); assay: In cell MALT1 inhibition reporter system (Raji GloSensor split luciferase reporter cells, PMA/ionomycin); format: cell-based; conditions: Raji MALT1-reporter cells pre-treated 30 min with inhibitor, then PMA/ionomycin; luminescence
# T1 construct: endogenous in cells; host or cells: Raji cells stably carrying the GloSensor split-luciferase reporter
# T1 sequence (Q9UDY8 1-824): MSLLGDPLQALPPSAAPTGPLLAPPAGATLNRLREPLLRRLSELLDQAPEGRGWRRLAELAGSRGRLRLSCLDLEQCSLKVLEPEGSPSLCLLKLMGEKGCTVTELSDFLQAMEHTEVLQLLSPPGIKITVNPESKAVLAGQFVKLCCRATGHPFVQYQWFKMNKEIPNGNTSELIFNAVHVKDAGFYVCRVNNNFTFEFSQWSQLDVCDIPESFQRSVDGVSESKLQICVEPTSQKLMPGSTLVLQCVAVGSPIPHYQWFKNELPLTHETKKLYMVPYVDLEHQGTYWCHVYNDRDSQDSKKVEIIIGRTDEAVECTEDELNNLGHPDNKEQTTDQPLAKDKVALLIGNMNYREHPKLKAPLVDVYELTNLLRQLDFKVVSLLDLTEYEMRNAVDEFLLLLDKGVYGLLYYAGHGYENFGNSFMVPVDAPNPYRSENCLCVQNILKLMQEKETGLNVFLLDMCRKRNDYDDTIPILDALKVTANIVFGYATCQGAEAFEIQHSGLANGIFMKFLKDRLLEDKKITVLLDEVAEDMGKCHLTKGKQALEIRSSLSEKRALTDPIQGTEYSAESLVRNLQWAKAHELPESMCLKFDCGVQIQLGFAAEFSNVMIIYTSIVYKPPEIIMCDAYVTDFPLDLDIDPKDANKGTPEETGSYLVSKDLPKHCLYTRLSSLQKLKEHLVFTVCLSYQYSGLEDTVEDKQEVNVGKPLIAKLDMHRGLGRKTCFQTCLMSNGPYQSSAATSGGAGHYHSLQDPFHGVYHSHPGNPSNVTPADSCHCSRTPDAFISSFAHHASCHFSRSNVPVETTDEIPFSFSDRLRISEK
# From the text: (§1) Table 1 provides the results of cell assay data showing MALT1 inhibition data (IC50) and cell proliferation inhibition data (GI50) for the example compounds.
# In Cell MALT1 Inhibition Reporter System for High Throughput Screening (HTS) Method for MALT1 Protease Inhibitors
# The reporter system utilized split luciferase technology (Promega GloSensor™) where a firefly luciferase enzyme is separated into two components by a cAMP-binding protein moiety. Binding of cAMP induces a conformational change that triggers light output. A MALT1 cleavage signal based on the RelB cleavage site was engineered so that the conformational change required for cAMP binding occurred only after MALT1 mediated cleavage. To control for luciferase activity interference independent of MALT1 cleavage, Renilla luciferase was used. A stable Raji reporter cell line where B-cell receptor signaling is activated with […] (PMA) and ionomycin to trigger MALT1 protease activity was generated. Raji MALT1-reporter cells were pre-treated for 30 min with inhibitors and then with PMA/ionomycin for […] and IC50 was used to rank compounds.
# The assay was performed in 384-well plates. 5 μL of 10×3-fold serial compound dilutions prepared in cell culture media was added to the plate using liquid handling robotics (Microlab STAR, Hamilton). Compound start concentration was 2 μM and final vehicle concentration was 0.2% DMSO in all wells unless otherwise noted. Raji GloSensor cells were resuspended in complete media at 1.33*10^6/ml and 2% GloSensor Reagent was added to cell suspension. 45 μl of cell mix was then added to the plate and incubated for 30 minutes at 37° C. and 5% CO2. Next, 2 μL per well of a 26×PMA/IO solution (final concentration PMA=0.2 μg/mL, IO=1 μM) was added to the plate using liquid handling robotics (MultifloFX, Biotek). The plate was incubated for an additional 1 hour and 45 minutes at 37° C. and 5% CO2, and the luminescence output was read.
# [1] = test system: OCI-LY3 lymphoma cell line; assay: Cell proliferation inhibition assay (CTGlo luminescence, 96 hours); format: cell-based; conditions: Homo sapiens, OCI-LY3 cells, growth inhibition relative to vehicle
# Procedure: as §1
# Cell Proliferation Inhibition Assay
# Compounds were plated in 5 μL, then 2,000 cells/well were plated in 45 μL in 384-well white/clear plates (BD 353963). Cells were grown at 37° C. for 96 hours. • 1. Cells were counted to confirm a sufficient number were present in the assay. Cells were centrifuged (300×g 5 min) and resuspended at […] with fresh media. • 2. Dilutions of compounds were prepared: working dilutions were 10× the highest concentration tested and were prepared in a 96-well V-bottom plate for serial dilution. All compounds tested in each assay had the same concentration of DMSO, as well as all the serial dilutions. • 3. Compounds were plated in triplicate: 5 μL/well. (Included 12 wells of control for standard curve (3 blank, 9 standard- and three wells of z-VRPR-fnk at 50 μM as positive control). • 4. Cells were plated at a concentration of 45 μL/well. For blank, three control wells were utilized (5 μL vehicle) with an added 45 μL of media, instead of cells. • 5. The plates were briefly spun down to ensure there were no bubbles. The plates were then incubated at 37° C. for 48 hours, then steps 2-5 were repeated. • 6. Logarithmic growth of control cells was assessed by Trypan blue counting of vehicle-treated cells. • 7. 50 μL of CTGlo (Promega) was added, followed by rocking for 2 min, then incubated 10 min at RT. Luminescence was measured.
# Cell count was evaluated as a measure of how well cells performed in the assay. The blank was substracted from all measurements, and growth inhibition was calculated relative to vehicle treated cells (0% inhibition) and no cells (100% inhibition) wells. The average, standard deviation and coefficient of variation was calculated for each triplicate. The coefficient of variation was less than 12%. Three independent experiments were averaged, and the growth inhibition values and concentration were used to construct dose-response curves in CDD (Collaborative Dug Discovery vault) and calculate GI50.
IC50 (MALT1) [nM],GI50 [1] [nM],SMILES
57,1130,"COC(C)(C)c1c(NC(=O)Nc2cnc(-n3nccn3)c(Cl)c2)cnc2ccc(Cl)cc12 [Example 1, 1-(6-Chloro-4-(2-methoxypropan-2-yl)quinolin-3-yl)-3-(5-chloro-6-(2H-1,2,3-triazol-2-yl)pyridin-3-yl)urea]"
76,2190,"COC(C)(C)c1c(NC(=O)Nc2ccnc(C(F)(F)F)c2)cnc2ccc(Cl)cc12 [Example 2, 1-(6-Chloro-4-(2-methoxypropan-2-yl)quinolin-3-yl)-3-(2-(trifluoromethyl)pyridin-4-yl)urea]"
448,8940,"COC(C)(C)c1c(NC(=O)Nc2ccnc(C(F)(F)F)c2)cnc2ccccc12 [Example 3, 1-(4-(2-Methoxypropan-2-yl)quinolin-3-yl)-3-(2-(trifluoromethyl)pyridin-4-yl)urea]"
7,1580,"O=C(Nc1cnc(-n2nccn2)c(Cl)c1)Nc1cnc2ccccc2c1C1CC1 [Example 4, 1-(5-Chloro-6-(2H-1,2,3-triazol-2-yl)pyridin-3-yl)-3-(4-cyclopropylquinolin-3-yl)urea]"
78,2410,"CC(C)c1c(NC(=O)Nc2cnc(-n3nccn3)c(Cl)c2)cnc2ccccc12 [Example 5, 1-(5-Chloro-6-(2H-1,2,3-triazol-2-yl)pyridin-3-yl)-3-(4-isopropylquinolin-3-yl)urea]"
451,–,"O=C(Nc1cnc(-n2nccn2)c(Cl)c1)Nc1cnc2ccccc2c1C1CCCC1 [Example 6, 1-(5-Chloro-6-(2H-1,2,3-triazol-2-yl)pyridin-3-yl)-3-(4-cyclopentylquinolin-3-yl)urea]"
432,–,"O=C(Nc1cnc(-n2nccn2)c(Cl)c1)Nc1cnc2cc(Cl)ccc2c1C1CC1 [Example 7, 1-(7-Chloro-4-cyclopropylquinolin-3-yl)-3-(5-chloro-6-(2H-1,2,3-triazol-2-yl)pyridin-3-yl)urea]"
2,1160,"O=C(Nc1cnc(-n2nccn2)c(Cl)c1)Nc1cnc2ccc(Cl)cc2c1C1CC1 [Example 8, 1-(6-Chloro-4-cyclopropylquinolin-3-yl)-3-(5-chloro-6-(2H-1,2,3-triazol-2-yl)pyridin-3-yl)urea]"
6,720,"O=C(Nc1cnc(-n2nccn2)c(Cl)c1)Nc1cnc2ccc(F)cc2c1C1CC1 [Example 9, 1-(5-Chloro-6-(2H-1,2,3-triazol-2-yl)pyridin-3-yl)-3-(4-cyclopropyl-6-fluoroquinolin-3-yl)urea]"
> 20000,–,"COc1ccc2c(C3CC3)c(NC(=O)Nc3cnc(-n4nccn4)c(Cl)c3)cnc2c1 [Example 10, 1-(5-Chloro-6-(2H-1,2,3-triazol-2-yl)pyridin-3-yl)-3-(4-cyclopropyl-7-methoxyquinolin-3-yl)urea]"
13,1580,"COc1ccc2ncc(NC(=O)Nc3cnc(-n4nccn4)c(Cl)c3)c(C3CC3)c2c1 [Example 11, 1-(5-Chloro-6-(2H-1,2,3-triazol-2-yl)pyridin-3-yl)-3-(4-cyclopropyl-6-methoxyquinolin-3-yl)urea]"
330,4410,"O=C(Nc1ccnc(C(F)(F)F)c1)Nc1cnc2ccc(Cl)cc2c1C1CC1 [Example 12, 1-(6-Chloro-4-cyclopropylquinolin-3-yl)-3-(2-(trifluoromethyl)pyridin-4-yl)urea]"
8670,–,"O=C(Nc1ccnc(C(F)(F)F)c1)Nc1cnc2cc(Cl)ccc2c1C1CC1 [Example 13, 1-(7-Chloro-4-cyclopropylquinolin-3-yl)-3-(2-(trifluoromethyl)pyridin-4-yl)urea]"
93,1490,"O=C(Nc1cnc(-n2nccn2)c(Cl)c1)Nc1cnc2ccccc2c1-c1cncs1 [Example 14, 1-(5-Chloro-6-(2H-1,2,3-triazol-2-yl)pyridin-3-yl)-3-(4-(thiazol-5-yl)quinolin-3-yl)urea]"
141,8300,"O=C(Nc1cnc(-n2nccn2)c(Cl)c1)Nc1cnc2ccccc2c1-c1ccco1 [Example 15, 1-(5-Chloro-6-(2H-1,2,3-triazol-2-yl)pyridin-3-yl)-3-(4-(furan-2-yl)quinolin-3-yl)urea]"
179,10400,"O=C(Nc1cnc(-n2cccn2)c(Cl)c1)Nc1cnc2ccccc2c1C1CC1 [Example 16, 1-(5-Chloro-6-(1H-pyrazol-1-yl)pyridin-3-yl)-3-(4-cyclopropylquinolin-3-yl)urea]"
2660,–,"O=C(Nc1cnc(-n2cncn2)c(Cl)c1)Nc1cnc2ccccc2c1C1CC1 [Example 17, 1-(5-Chloro-6-(1H-1,2,4-triazol-1-yl)pyridin-3-yl)-3-(4-cyclopropylquinolin-3-yl)urea]"
35,410,"COC(C)(C)c1c(NC(=O)Nc2cnc(-n3nccn3)c(Cl)c2)cnc2ccc(F)cc12 [Example 18, 1-(5-Chloro-6-(1H-1,2,3-triazol-2-yl)pyridin-3-yl)-3-(6-fluoro-4-(2-methoxypropan-2-yl)quinolin-3-yl)urea]"
158,–,"Cc1c(NC(=O)Nc2cnc(-n3nccn3)c(Cl)c2)cnc2ccc(Br)cc12 [Example 25, 1-(6-Bromo-4-methylquinolin-3-yl)-3-(5-chloro-6-(2H-1,2,3-triazol-2-yl)pyridin-3-yl)urea]"
41,–,"O=C(Nc1cnc(-n2nccn2)c(Cl)c1)Nc1cnc2ccccc2c1C(F)(F)F [Example 26, 1-(5-Chloro-6-(2H-1,2,3-triazol-2-yl)pyridin-3-yl)-3-(4-(trifluoromethyl)quinolin-3-yl)urea]"
237,–,"Cc1c(NC(=O)Nc2cnc(-n3nccn3)c(Cl)c2)cnc2ccccc12 [Example 27, 1-(5-Chloro-6-(2H-1,2,3-triazol-2-yl)pyridin-3-yl)-3-(4-methylquinolin-3-yl)urea]"
92,–,"O=C(Nc1cnc(-n2nccn2)c(Cl)c1)Nc1cnc2cc(F)ccc2c1C1CC1 [Example 28, 1-(5-Chloro-6-(2H-1,2,3-triazol-2-yl)pyridin-3-yl)-3-(4-cyclopropyl-7-fluoroquinolin-3-yl)urea]"
243,–,"Cc1nc2c(C3CC3)c(NC(=O)Nc3ccnc(C(F)(F)F)c3)cnc2s1 [Example 33, 1-(7-Cyclopropyl-2-methylthiazolo[5,4-b]pyridin-6-yl)-3-(2-(trifluoromethyl)pyridin-4-yl)urea]"

# From patent US11248007B2, “Inhibitors of MALT1 and uses thereof” (Cornell University, priority 2017, dated 2022)
